According to publication PMC9596378, “Discovery and molecular basis of subtype-selective cyclophilin inhibitors” (Nature Chemical Biology, 2022):
Where “and” joins values, the source holds several entries; their conditions need not be identical. Equal entries are not always repeated.

Tests used:
CypD = CypD (Homo sapiens, UniProt P30405); test: Chymotrypsin coupled prolyl-isomerase assay; conditions: for prolyl-isomerase activity (raw dose-response value): CypD
CypB = biological target: T1, CypB (Homo sapiens, UniProt P23284); test: biochemical; conditions: for prolyl-isomerase activity (raw dose-response value): CypB
T1 construct: PPIB (UniProtKB Entry P23284: residues 34–216); His6 with TEV site (2BT vector leader) (N); made in house; host or cells: E. coli BL21(DE3)
T1 sequence (P23284 34-216): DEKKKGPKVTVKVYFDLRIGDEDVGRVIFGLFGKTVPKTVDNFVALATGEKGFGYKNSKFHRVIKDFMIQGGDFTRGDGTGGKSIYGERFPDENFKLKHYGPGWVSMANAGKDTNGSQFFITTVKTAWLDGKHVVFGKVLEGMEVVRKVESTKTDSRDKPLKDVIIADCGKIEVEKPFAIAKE
How it was run: (§1)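 Recombinant cyclophilin (5 nM final) in 25 mM HEPES pH 7.3, 100 mM NaCl, 0.01% Triton X-100 was preincubated with compound at 2–3 °C. It was then coupled with 25 µM α-chymotrypsin and 5 µM Suc-AAPF-AMC (LiCl/TFE), and AMC fluorescence was followed for 330 s.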

Cyp40 = Cyp40 (Homo sapiens, UniProt Q08752); test: Chymotrypsin coupled prolyl-isomerase assay; conditions: for prolyl-isomerase activity (raw dose-response value): in s^-1
Chain of Cyp40 (Q08752 1-183): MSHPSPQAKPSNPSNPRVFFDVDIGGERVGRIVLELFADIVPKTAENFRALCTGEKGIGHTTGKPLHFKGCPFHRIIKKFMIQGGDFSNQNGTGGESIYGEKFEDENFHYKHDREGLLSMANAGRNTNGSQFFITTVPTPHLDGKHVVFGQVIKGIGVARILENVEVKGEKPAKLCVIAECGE
How it was run: as §1

NKTR = biological target: T2, NKTR (Homo sapiens, UniProt P30414); test: Chymotrypsin coupled prolyl-isomerase assay; format: biochemical; conditions: for prolyl-isomerase activity (raw dose-response value): NKTR
T2 construct: NKTR (UniProtKB Entry P30414: residues 7–179); host or cells: E. coli BL21(DE3)
T2 sequence (P30414 7-179): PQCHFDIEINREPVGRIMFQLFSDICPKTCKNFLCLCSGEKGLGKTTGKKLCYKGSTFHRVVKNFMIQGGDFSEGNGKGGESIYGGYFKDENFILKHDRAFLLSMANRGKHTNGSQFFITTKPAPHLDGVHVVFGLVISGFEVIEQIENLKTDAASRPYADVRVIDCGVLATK

PPIL1 = biological target: T3, PPIL1 (Homo sapiens, UniProt Q9Y3C6); test: Chymotrypsin coupled prolyl-isomerase assay; format: biochemical
T3 construct: PPIL1 (UniProtKB Entry Q9Y3C6: residues 1–166); made in house; host or cells: E. coli BL21(DE3)
T3 sequence (Q9Y3C6 1-166): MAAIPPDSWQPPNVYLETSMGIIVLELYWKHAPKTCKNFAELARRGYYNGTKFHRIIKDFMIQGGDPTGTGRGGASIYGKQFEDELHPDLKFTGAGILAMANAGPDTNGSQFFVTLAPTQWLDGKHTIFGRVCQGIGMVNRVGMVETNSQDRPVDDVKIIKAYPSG

PPWD1 = biological target: T4, PPWD1 (Homo sapiens, UniProt Q96BP3); test: Chymotrypsin coupled prolyl-isomerase assay; format: biochemical; conditions: for prolyl-isomerase activity (raw dose-response value): in s^-1
T4 construct: PPWD1 (UniProtKB Entry Q96BP3: residues 473–646); host or cells: E. coli BL21(DE3)
T4 sequence (Q96BP3 473-646): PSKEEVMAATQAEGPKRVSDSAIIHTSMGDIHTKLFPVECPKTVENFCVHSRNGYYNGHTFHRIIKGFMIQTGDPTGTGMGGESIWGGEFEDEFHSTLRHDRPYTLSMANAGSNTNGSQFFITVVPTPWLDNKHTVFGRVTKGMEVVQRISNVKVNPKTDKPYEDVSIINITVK

Chain of CypD (P30405 45-207): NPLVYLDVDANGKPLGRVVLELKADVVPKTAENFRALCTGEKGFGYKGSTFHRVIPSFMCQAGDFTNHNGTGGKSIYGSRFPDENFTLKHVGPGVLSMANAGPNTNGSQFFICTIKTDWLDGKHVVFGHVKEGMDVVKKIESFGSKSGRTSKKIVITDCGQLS

**Q.** Which results are given for `NCCOCCNC(=O)[C@@H]1CCNC(=O)/C=C/C(=O)N2CCC[C@](Cc3ccccc3)(C2)C(=O)N[C@@H](Cc2ccc(C(=O)c3ccccc3)cc2)C(=O)NCc2ccccc2CC(=O)N1` [Compound B1]?
**A.** IC50 (CypD): 40 nM; prolyl-isomerase activity (raw dose-response value) (CypD; dose 0.00244141 µM): 0.1167 and 0.1009 and 0.132; prolyl-isomerase activity (raw dose-response value) (CypD; dose 0.00488281 µM): 0.1171 and 0.1006 and 0.1105; prolyl-isomerase activity (raw dose-response value) (CypD; dose 0.00976562 µM): 0.1045 and 0.1074 and 0.1165; prolyl-isomerase activity (raw dose-response value) (CypD; dose 0.0195312 µM): 0.0977 and 0.1005 and 0.09149; prolyl-isomerase activity (raw dose-response value) (CypD; dose 0.0390625 µM): 0.07882 and 0.0807 and 0.08119; prolyl-isomerase activity (raw dose-response value) (CypD; dose 0.078125 µM): 0.05821 and 0.05418 and 0.05518; prolyl-isomerase activity (raw dose-response value) (CypD; dose 0.15625 µM): 0.03845 and 0.03512 and 0.03854; prolyl-isomerase activity (raw dose-response value) (CypD; dose 0.3125 µM): 0.0261 and 0.02523 and 0.02516; prolyl-isomerase activity (raw dose-response value) (CypD; dose 0.625 µM): 0.0197 and 0.01788 and 0.01929; prolyl-isomerase activity (raw dose-response value) (CypD; dose 1.25 µM): 0.01434 and 0.01347 and 0.01416; prolyl-isomerase activity (raw dose-response value) (CypD; dose 2.5 µM): 0.009932 and 0.009111 and 0.008108; prolyl-isomerase activity (raw dose-response value) (CypB; dose 0.00114312 µM): 0.08676 and 0.07612 and 0.1045; prolyl-isomerase activity (raw dose-response value) (CypB; dose 0.00342935 µM): 0.09293 and 0.08942 and 0.1133; prolyl-isomerase activity (raw dose-response value) (CypB; dose 0.0102881 µM): 0.05857 and 0.07024 and 0.08235; prolyl-isomerase activity (raw dose-response value) (CypB; dose 0.0308642 µM): 0.06507 and 0.05219 and 0.06265; prolyl-isomerase activity (raw dose-response value) (CypB; dose 0.0925926 µM): 0.05131 and 0.04637 and 0.04858; prolyl-isomerase activity (raw dose-response value) (CypB; dose 0.277778 µM): 0.03303 and 0.03453 and 0.03517; prolyl-isomerase activity (raw dose-response value) (CypB; dose 0.833333 µM): 0.03176 and 0.0219 and 0.02127; prolyl-isomerase activity (raw dose-response value) (CypB; dose 2.5 µM): 0.01492 and 0.01697 and 0.01392; IC50 (CypB; wild-type CypB, read-out: Wild-Type Cyclophilin Prolyl Isomerase Inhibition IC50 Values, CypB): 30 nM; prolyl-isomerase activity (raw dose-response value) (Cyp40; Cyp40, dose 0.0228624 µM): 0.05537 and 0.05091 and 0.0526; prolyl-isomerase activity (raw dose-response value) (Cyp40; Cyp40, dose 0.0685871 µM): 0.04831 and 0.04914 and 0.04761; prolyl-isomerase activity (raw dose-response value) (Cyp40; Cyp40, dose 0.205761 µM): 0.03428 and 0.03147 and 0.03197; prolyl-isomerase activity (raw dose-response value) (Cyp40; Cyp40, dose 0.617284 µM): 0.02396 and 0.01982 and 0.02092; prolyl-isomerase activity (raw dose-response value) (Cyp40; Cyp40, dose 1.85185 µM): 0.01751 and 0.01672 and 0.01432; prolyl-isomerase activity (raw dose-response value) (Cyp40; Cyp40, dose 5.55556 µM): 0.0143 and 0.01339 and 0.01386; prolyl-isomerase activity (raw dose-response value) (Cyp40; Cyp40, dose 16.6667 µM): 0.01332 and 0.01439 and 0.01303; prolyl-isomerase activity (raw dose-response value) (Cyp40; Cyp40, dose 50 µM): 0.01384 and 0.01317 and 0.01466; IC50 (Cyp40; Wild-Type Cyclophilin Prolyl Isomerase Inhibition IC50 Values, Cyp40, wild-type Cyp40): 50 nM; prolyl-isomerase activity (raw dose-response value) (NKTR; dose 6.125 µM): 0.03455 and 0.03286 and 0.03325; prolyl-isomerase activity (raw dose-response value) (NKTR; dose 12.5 µM): 0.03629 and 0.03152 and 0.03174; prolyl-isomerase activity (raw dose-response value) (NKTR; dose 25 µM): 0.03462 and 0.03246 and 0.03111; prolyl-isomerase activity (raw dose-response value) (NKTR; dose 50 µM): 0.03275 and 0.03195 and 0.02857; prolyl-isomerase activity (raw dose-response value) (NKTR; dose 100 µM): 0.02401 and 0.02915 and 0.0269; IC50 (NKTR; wild-type NKTR, read-out: Wild-Type Cyclophilin Prolyl Isomerase Inhibition IC50 Values, NKTR): > 100000 nM; prolyl-isomerase activity (raw dose-response value) (PPIL1; PPIL1, dose 0.0228624 µM): 0.0901 and 0.08843 and 0.1022; prolyl-isomerase activity (raw dose-response value) (PPIL1; PPIL1, dose 0.0685871 µM): 0.07658 and 0.07564 and 0.08071; prolyl-isomerase activity (raw dose-response value) (PPIL1; PPIL1, dose 0.205761 µM): 0.05553 and 0.06081 and 0.06346; prolyl-isomerase activity (raw dose-response value) (PPIL1; PPIL1, dose 0.617284 µM): 0.04442 and 0.03692 and 0.0407; prolyl-isomerase activity (raw dose-response value) (PPIL1; PPIL1, dose 1.85185 µM): 0.02604 and 0.02534 and 0.024; prolyl-isomerase activity (raw dose-response value) (PPIL1; PPIL1, dose 5.55556 µM): 0.01797 and 0.0175 and 0.01949; prolyl-isomerase activity (raw dose-response value) (PPIL1; PPIL1, dose 16.6667 µM): 0.01539 and 0.0139 and 0.01238; prolyl-isomerase activity (raw dose-response value) (PPIL1; PPIL1, dose 50 µM): 0.01281 and 0.01627 and 0.01081; IC50 (PPIL1; wild-type PPIL1, read-out: Wild-Type Cyclophilin Prolyl Isomerase Inhibition IC50 Values, PPIL1): 200 nM; prolyl-isomerase activity (raw dose-response value) (PPWD1; PPWD1, dose 0.00244141 µM): 0.05276 and 0.05431 and 0.05271; prolyl-isomerase activity (raw dose-response value) (PPWD1; PPWD1, dose 0.00488281 µM): 0.05268 and 0.05435 and 0.05318; prolyl-isomerase activity (raw dose-response value) (PPWD1; PPWD1, dose 0.00976562 µM): 0.05613 and 0.05695 and 0.05468; prolyl-isomerase activity (raw dose-response value) (PPWD1; PPWD1, dose 0.0195312 µM): 0.05207 and 0.05349 and 0.04937; prolyl-isomerase activity (raw dose-response value) (PPWD1; PPWD1, dose 0.0390625 µM): 0.05208 and 0.05238 and 0.05082; prolyl-isomerase activity (raw dose-response value) (PPWD1; PPWD1, dose 0.078125 µM): 0.04871 and 0.04927 and 0.04631; prolyl-isomerase activity (raw dose-response value) (PPWD1; PPWD1, dose 0.15625 µM): 0.04828 and 0.0525 and 0.04634; prolyl-isomerase activity (raw dose-response value) (PPWD1; PPWD1, dose 0.3125 µM): 0.04787 and 0.04701 and 0.04264; prolyl-isomerase activity (raw dose-response value) (PPWD1; PPWD1, dose 0.625 µM): 0.04382 and 0.04097 and 0.03416; prolyl-isomerase activity (raw dose-response value) (PPWD1; PPWD1, dose 1.25 µM): 0.03009 and 0.02964 and 0.0254; prolyl-isomerase activity (raw dose-response value) (PPWD1; PPWD1, dose 2.5 µM): 0.02331 and 0.02391 and 0.0225; IC50 (PPWD1; wild-type PPWD1, read-out: Wild-Type Cyclophilin Prolyl Isomerase Inhibition IC50 Values, PPWD1): 1400 nM
